Like-named read-outs stand apart in the source and are kept apart here.
Key:
Assay type in all cases: in vivo
[1] = Acute toxicity in the 7 day test on mice; conditions: mouse, in vivo, po; male NMRI mice, intragastral (i.g.), 7 days observation
Protocol: (§1) The acute toxicity of the thiazolidones according to the present invention was investigated on male mice (NMRI) with a body weight of 21-26 g. Before commencement of the experiment, the animals fasted for 24 hours but with water available ad libitum. There were 4 mice in each dosage group. The dosage was increased by a factor of 2. The test compounds were suspended in a 1% tragacanth mucilage and administered intragastrally by, means of a stomach probe. The amount of liquid administered was 0.2 ml./10 g. body weight. […] Silymarin was used as standard substance. The LD50 values determined are set out in the following Table I: […]

[2] = system: male mice (NMRI); assay: Acute toxicity in the 7 day test on mice; conditions: intragastral (i.g.), 7 days observation
Protocol: as §1

[3] = system: mice with liver damage caused by α-amanitine; assay: Anti-hepatotoxic action: survival rate of mice with liver damage caused by α-amanitine; conditions: for effect on survival rate of α-amanitine liver damaged mice (in words): in comparison with untreated control animals
Protocol: As a further animal experimental test model for the testing of the anti-hepatotoxic actions of pharmaceuticals, use is made of the liver damage in mice produced by α-amanitine.
Since it is extremely difficult to obtain α-amanitine in sufficient amounts, only a small amount of α-amanitine was available for these experiments so that the experiments could only be carried out to a very limited extent.
The influence of Compounds Nos. 1 and 4 was determined on the survival rate of mice with liver damage brought about by α-amanitine. As standard substance, there was again used silymarin which was tested by us in the dosage found to be effective by Hahn et al. (Arzneimittel Forschung, 18, 697/1968) as an anti-hepatotoxic in the same experimental procedure.
Each experimental group consisted of 25 animals. The test substances were administered daily over a period of 6 days, administration being intragastrally in a tragacanth mucilage (0.2 ml./10 g. body weight), using a stomach probe.
The intraperitoneal administration of, in each case, 0.3 mg./kg. α-amanitine took place in all experimental groups on the second day of the experiment. The dosage of α-amanitine was so chosen that the mortality rate of the untreated animals remained below 100%. The survival rate of the animals of all experimental groups was monitored daily for a total period of 14 days. The statistical comparison of the survival rate took place according to the Vierfelder […]. The comparative values obtained are set out in the following Table III: […]

[4] = 2 × 250 mg/kg/day i.g., untreated 52%, 14 days

Structure (SMILES)	LD50 at 168 h [1] [mg/kg]	LD50 [2]	survival rate of α-amanitine liver damaged animals, treated [3, 4] [%]	effect on survival rate of α-amanitine liver damaged mice (in words) [3]	survival rate of α-amanitine liver damaged animals, treated [3] [%]
CCOC(=O)C=C1SC(c2ccccc2)(N(C)CCO)C(=O)N1CC (stereo not drawn) [Compound 5, Ethyl 3-ethyl-5-phenyl-5-(methyl-β-hydroxyethylamino)-4-oxo-Δ^2,^α -thiazolidine-acetate]	> 1600				
CCOC(=O)C=C1SC(CC)(c2ccccc2)C(=O)N1C (stereo not drawn) [Compound 3, ethyl 3-methyl-5-ethyl-5-phenyl-4-oxo-Δ^2,^α -thiazolidine-acetate]	~1600	about 1600 mg./kg.			
CCOC(=O)C=C1SC(c2ccccc2)(N2CCCCC2)C(=O)N1C (stereo not drawn) [Compound 1, ethyl 3-methyl-5-phenyl-5-N-piperidino-4-oxo-Δ^2,^α -thiazolidine-acetate]	> 1600		92	clearly increases the survival rate	
CCOC(=O)C=C1SC(c2ccccc2)(N2CCCC2)C(=O)N1C (stereo not drawn) [Compound 2, ethyl 3-methyl-5-phenyl-5-N-pyrrolidino-4-oxo-Δ^2,^α -thiazolidine-acetate]	> 1600				
CCOC(=O)C=C1SC(c2ccccc2)(N2CCCCC2)C(=O)N1CC (stereo not drawn) [Compound 4, Ethyl 3-ethyl-5-phenyl-5-N-piperidino-4-oxo-Δ^2,^α -thiazolidine-acetate]	> 1600		100	statistically highly significant	100

From US4018775A, “5-Phenyl-thiazolidin-4-one derivatives” (Warner-Lambert Company, priority 1974, dated 1977)
